From US8952222B2, “Herbicide resistant sunflower plants derived from RW-B cultivar” (Anglo Netherlands Grain B.V., priority 2008, dated 2015)
“And” between values parts separate entries of the source, which are not always exact repeats. Equal values may be shown once. Marks after values point to notes of the source that are not given here.

Experiments:
Assay type in all cases: in vivo
sunflower line RW-B [1] = assay: Resistance to different AHAS-inhibitor herbicides, Phytotoxicity Index (FIG. 4); details: concentration of at least 67 grams of active ingredient per hectare
Source text: Sunflower lines: The following genetic sunflower lines were used in determining AHAS resistance: two S lines (“B770” and “HA89”), two lines resistant to SUs derived from the population SURES (SuBL and SuRL), two lines resistant to IMIs derived from the population IMISUN (“Rha 426” and “B770imi”) and the line “RW-B”. […] SURES and IMISUN are breeding populations release by the USDA. B770 is a proprietary line from Nidera. B770imi is a proprietary line with B770 background carrying the resistant gene Imr1. RW-B was obtained as described above.
Plants were grown in a greenhouse under natural light conditions supplemented with 400 W halide lamps to provide a 14 h day length. Day/night temperatures were 25 and 20° C., respectively. […] Plants without any symptoms were recorded as “0,” increasing levels of stunting and yellowing with respect to the untreated control plants were recorded as “1” to “4,” increasing levels of leaf abnormalities and leaf necrosis were recorded from “5” to “8,” and dead plants with total necrosis of the apex were recorded as “9.” PI data for each experiment were analyzed by an ANOVA test, means were compared by a LSD test.
Response of sunflower lines (B770, HA89, SuBL, SuRL, Rha426, B770imi and RW-B) to four different families of AHAS inhibiting herbicides. […] The injury was measured using Phytotoxicity Index (PI).

sunflower line HA89 = assay: Greenhouse spray with imazapyr, visual inspection for injury; details: imazapyr 80 gr ai/ha at V4, two weeks after treatment
Description: (§1) 300 seeds of a wild sunflower population known to be tolerant to IMIs were sown under greenhouse conditions at Nidera Experimental Station in Venado Tuerto, Santa Fe, Argentina, together with the control lines HA89, B770 (Susceptible—[…]), BTI-M1 and RHA426 (Resistant—“R”). At the V4 stage all the plants were sprayed with imazapyr at a rate of 80 gr ai/ha. Two weeks after treatment, all the plants were evaluated by visual inspection for injury. S lines HA89 and B770 were killed by the treatment. […] In total, […] plants of the wild population resisted the herbicide treatment and 129 were killed (categorized as S).

sunflower line RHA426 [2] = assay: as above; details: imazapyr 80 gr ai/ha at V4, two weeks after treatment
Description: as §1

sunflower line BTI-M1 = assay: as above; details: imazapyr 80 gr ai/ha at V4, two weeks after treatment
Description: as §1

sunflower line B770 [3] = assay: as above; details: imazapyr 80 gr ai/ha, two weeks after treatment
Description: as §1
One R plant (RW-73) was used as male in crosses with the cultivated susceptible lines HA89 and B770. Ten to 20 F1 plants from each cross were sprayed with imazapyr at a rate of 80 gr ai/ha, using B770 (S) and BTI-M1 (R) as controls. […] However, imazapyr treatment killed the B770 plants.

sunflower line RW-B [4] = assay: Whole plant dose response to imazapyr; details: from 4x to 10x rates of herbicide application, 14 DAT
Description: (§2) Seeds were sown in Petri dishes and, after germination; plantlets were transplanted to pots of 10 cm of diameter in a potting media consisting of equal parts of vermiculite, soil and sand. Plants were grown in a greenhouse under natural light conditions supplemented with 400 W sodium halide lamps to provide a 16 hr day-length. Day/night temperatures were 25 and 20° C., respectively. At the V2-V4 stage (Schneiter & Miller, 1981) 10 plants of each genotype were randomly assigned to each treatment consisting of eight imazapyr doses (0, 40, 80, 160, 320, 480, 640 and 800 g ai/ha, without treatment, 0.5×, 1×, 2×, 4×, 6×, 8× and 10× respectively), and a zero-time biomass determination. Experiment was arranged as a randomized block design with a full factorial (sunflower line x treatment) arrangement of treatments and 10 replications.
(§3) On the day of herbicide application ten plants of each genotype were cut at the cotyledonal node and dried at 60° C. for 48 hrs for zero-time dried weight determination.
(§4) The remaining plants were maintained for 14 days after imazapyr treatment (DAT) and their height, Phytotoxicity Index (PI) and above ground dry biomass were determined. Height was determined as the distance between the cotyledonal node and the apex of each plant. Above ground biomass data from each line were converted to biomass accumulation after application by subtracting the appropriate average zero-time biomass from each sample. Dry biomass data were converted to percentages of the untreated control plants within each line to allow direct comparisons between groups. […] Plants without any symptoms were recorded as “0”, increasing levels of stunting and chlorosis with respect to the untreated control plants were recorded as “1” to “4”, increasing levels of leaf abnormalities and leaf necrosis were recorded from “5” to “8”, and dead plants with total necrosis of the apex were recorded as “9”.

sunflower line B770 [5] = assay: Whole plant dose response to imazapyr; details: line B770 (WT-Susceptible), 14 DAT; for Dry weight (as a % of the untreated plants): above ground biomass; for Phytotoxicity Index: scale 0-9
Description: as §2, §3, §4

sunflower line RHA426 [6] = assay: Allelism test, challenge with imazapyr; details: control line RHA426; imazapyr 320 g a.i. ha-1 at V2-V4
Source text: RW-B plants were crossed with RHA426 in order to determine if the resistant gene in RW-B is allelic to Imr1, the mutation previously described in imidazolinone resistant inbred lines. In this cross, F1 hybrids plants were self pollinated and backcrossed to RHA426 to obtain the F2 and BC1F1 generations, respectively. Plants from the parents and from F1, F2 and BC were challenged with 160 g a.i. ha^−1 and 320 g a.i. ha^−1 of imazapyr at the V2-V4 stage. Post challenge, plants were scored as described above.
On the other hand, when F2 and BC populations were scored after applying herbicide at the higher rate (320 g a.i. ha^−1), segregation for susceptibility could be observed. Only two phenotypic classes were detected, a resistant class composed of plants that were without any sign of injury or only slight symptoms, and a susceptible phenotype that was killed at this dose in much the same way as the control line RHA426.

How did the “resistance of RW-B” value (sunflower line RW-B [1]) turn out when `CCOc1nc(F)cc2nc(S(=O)(=O)Nc3c(Cl)cccc3C(=O)OC)nn12` [cloransulam-methyl] was run?
Its value is “resistance”.

With `CC(C)C1(C)N=C(c2ncccc2C(=O)O)NC1=O` (stereo not shown) [imazapyr] as the compound, how does the “injury by visual inspection” value (sunflower line HA89) read?
The value was “killed”.

What about the “injury by visual inspection” value (sunflower line RHA426 [2]) of the same compound?
The value was “signs of chlorosis”.

And the “injury by visual inspection” value (sunflower line BTI-M1)?
The value was “did not present any signs of damage”.

And the “injury by visual inspection” value (sunflower line B770 [3])?
The value was “killed”.

And the “height, % of the untreated control plants” value (sunflower line RW-B [4])?
The value was 75%.

And the “Dry weight (as a % of the untreated plants)” value (sunflower line B770 [5]; imazapyr 0.5x = 40 g ai/ha)?
The value was 32.7^d %.

And the “Dry weight (as a % of the untreated plants)” value (sunflower line B770 [5]; imazapyr 1x = 80 g ai/ha)?
The value was 30.2^d %.

What about the “Dry weight (as a % of the untreated plants)” value (sunflower line B770 [5]; imazapyr 2x = 160 g ai/ha) of the same compound?
The value was 27.6^d %.

What about the “Dry weight (as a % of the untreated plants)” value (sunflower line B770 [5]; imazapyr 4x = 320 g ai/ha) of the same compound?
The value was 26.5^d %.

What about the “Dry weight (as a % of the untreated plants)” value (sunflower line B770 [5]; imazapyr 6x = 480 g ai/ha) of the same compound?
Its value is 25.9^d %.

And the “Dry weight (as a % of the untreated plants)” value (sunflower line B770 [5]; imazapyr 8x = 640 g ai/ha)?
The value was 25.7^d %.

What about the “Dry weight (as a % of the untreated plants)” value (sunflower line B770 [5]; imazapyr 10x = 800 g ai/ha) of the same compound?
The value was 25.2^d %.

And the “Height (as % of the untreated plants)” value (sunflower line B770 [5]; imazapyr 0.5x = 40 g ai/ha)?
Its value is 35.0% and 35.0^c %.

What about the “Phytotoxicity Index” value (sunflower line B770 [5]; imazapyr 0.5x = 40 g ai/ha) of the same compound?
The value was 8.9^a.

What about the “Height (as % of the untreated plants)” value (sunflower line B770 [5]; imazapyr 1x = 80 g ai/ha) of the same compound?
The value was 31.8^c %.

What about the “Phytotoxicity Index” value (sunflower line B770 [5]; imazapyr 1x = 80 g ai/ha) of the same compound?
The value was 9^a.

And the “Height (as % of the untreated plants)” value (sunflower line B770 [5]; imazapyr 2x = 160 g ai/ha)?
The value was 31.9^d %.

What about the “Phytotoxicity Index” value (sunflower line B770 [5]; imazapyr 2x = 160 g ai/ha) of the same compound?
The value was 9^a.

And the “Height (as % of the untreated plants)” value (sunflower line B770 [5]; imazapyr 4x = 320 g ai/ha)?
Its value is 31.9^d %.

And the “Phytotoxicity Index” value (sunflower line B770 [5]; imazapyr 4x = 320 g ai/ha)?
Its value is 9^a.

What about the “Height (as % of the untreated plants)” value (sunflower line B770 [5]; imazapyr 6x = 480 g ai/ha) of the same compound?
Its value is 31.6^d %.

And the “Phytotoxicity Index” value (sunflower line B770 [5]; imazapyr 6x = 480 g ai/ha)?
Its value is 9^a.

What about the “Height (as % of the untreated plants)” value (sunflower line B770 [5]; imazapyr 8x = 640 g ai/ha) of the same compound?
The value was 31.7^d %.

What about the “Phytotoxicity Index” value (sunflower line B770 [5]; imazapyr 8x = 640 g ai/ha) of the same compound?
Its value is 9^a.

And the “Height (as % of the untreated plants)” value (sunflower line B770 [5]; imazapyr 10x = 800 g ai/ha)?
The value was 31.4^c %.

What about the “Phytotoxicity Index” value (sunflower line B770 [5]; imazapyr 10x = 800 g ai/ha) of the same compound?
Its value is 9^a.

And the response to imazapyr (sunflower line RHA426 [6])?
The response to imazapyr was “killed”.
